{"source": "patent US11053204B2", "about": "“Pyrimidinyloxy benzene derivatives as herbicides” (FMC Corporation, priority 2015, dated 2021)", "format_in_all_cases": "in vivo", "key": {"[1]": {"system": "ducksalad (Heteranthera limosa)", "assay": "Test B flooded paddy test, plant response rating", "details": "250 g ai/ha; Flood; scale of 0 to 100 where 0 is no effect and 100 is complete control; 13 to 15 days", "description": "(§1) At time of treatment, test pots were flooded to 3 cm above the soil surface, treated by application of test compounds directly to the paddy water, and then maintained at that water depth for the duration of the test. Treated plants and controls were maintained in a greenhouse for 13 to 15 days, after which time all species were compared to controls and visually evaluated. […] A dash (-) response means no test result."}, "[2]": {"system": "barnyardgrass (Echinochloa crus-galli)", "assay": "Test B flooded paddy test, plant response rating", "details": "250 g ai/ha; Flood; scale of 0 to 100 where 0 is no effect and 100 is complete control; 13 to 15 days", "description": "as §1"}, "[3]": {"system": "sedge, umbrella (small-flower umbrella sedge, Cyperus difformis)", "assay": "Test B flooded paddy test, plant response rating", "details": "250 g ai/ha; Flood; scale of 0 to 100 where 0 is no effect and 100 is complete control; 13 to 15 days", "description": "as §1"}, "rice (Oryza sativa)": {"system": "rice (Oryza sativa)", "assay": "Test B flooded paddy test, plant response rating", "details": "250 g ai/ha; Flood; scale of 0 to 100 where 0 is no effect and 100 is complete control; 13 to 15 days", "description": "as §1"}, "corn (Zea mays)": {"system": "corn (Zea mays)", "assay": "Test A postemergence, visual injury rating", "description": "(§2) Seeds of plant species selected from barnyardgrass (Echinochloa crus-galli), kochia (Kochia scoparia), ragweed (common ragweed, Ambrosia elatior), Italian ryegrass (Lolium multiflorum), large (Lg) crabgrass (Digitaria sanguinalis), giant foxtail (Setaria faberii), morningglory (Ipomoea spp.), pigweed (Amaranthus retroflexus), velvetleaf (Abutilon theophrasti), wheat (Triticum aestivum), and corn (Zea mays) were planted into a blend of loam soil and sand and treated preemergence with a directed soil spray using test chemicals formulated in a non-phytotoxic solvent mixture which included a surfactant.\n(§3) At the same time, plants selected from these crop and weed species and also blackgrass (Alopecurus myosuroides), and galium (catchweed bedstraw, Galium aparine) were planted in pots containing the same blend of loam soil and sand and treated with postemergence applications of test chemicals formulated in the same manner. Plants ranged in height from 2 to 10 cm and were in the one- to two-leaf stage for the postemergence treatment. Treated plants and untreated controls were maintained in a greenhouse for approximately 10 days, after which time all treated plants were compared to untreated controls and visually evaluated for injury. Plant response ratings, summarized in Table A, are based on a 0 to 100 scale where 0 is no effect and 100 is complete control. A dash (-) response means no test result."}, "[4]": {"system": "wheat (Triticum aestivum)", "assay": "Test A postemergence, visual injury rating", "description": "as §2, §3"}, "[5]": {"system": "pigweed (Amaranthus retroflexus)", "assay": "Test A postemergence, visual injury rating", "description": "as §2, §3"}, "[6]": {"system": "ragweed (common ragweed, Ambrosia elatior)", "assay": "Test A postemergence, visual injury rating", "description": "as §2, §3"}, "kochia (Kochia scoparia) [7]": {"system": "kochia (Kochia scoparia)", "assay": "Test A postemergence, visual injury rating", "description": "as §2, §3"}, "[8]": {"system": "blackgrass (Alopecurus myosuroides)", "assay": "Test A postemergence, visual injury rating", "description": "as §2, §3"}, "[9]": {"system": "giant foxtail (Setaria faberii)", "assay": "Test A postemergence, visual injury rating", "description": "as §2, §3"}, "[10]": {"system": "barnyardgrass (Echinochloa crus-galli)", "assay": "Test A postemergence, visual injury rating", "details": "0 is no effect, 100 is complete control; for Barnyardgrass plant response rating: 0 to 100 scale, approximately 10 days", "description": "as §2, §3"}, "[11]": {"system": "Italian ryegrass (Lolium multiflorum)", "assay": "Test A postemergence, visual injury rating", "description": "as §2, §3"}, "[12]": {"system": "galium (catchweed bedstraw, Galium aparine)", "assay": "Test A postemergence, visual injury rating", "description": "as §2, §3"}, "[13]": {"system": "pigweed (Amaranthus retroflexus)", "assay": "Test A preemergence, visual injury rating", "description": "as §2, §3"}, "[14]": {"system": "ragweed (common ragweed, Ambrosia elatior)", "assay": "Test A preemergence, visual injury rating", "description": "as §2, §3"}, "kochia (Kochia scoparia) [15]": {"system": "kochia (Kochia scoparia)", "assay": "Test A preemergence, visual injury rating", "description": "as §2, §3"}, "[16]": {"system": "giant foxtail (Setaria faberii)", "assay": "Test A preemergence, visual injury rating", "description": "as §2, §3"}, "[17]": {"system": "barnyardgrass (Echinochloa crus-galli)", "assay": "Test A preemergence, visual injury rating", "description": "as §2, §3"}, "[18]": {"system": "Italian ryegrass (Lolium multiflorum)", "assay": "Test A preemergence, visual injury rating", "description": "as §2, §3"}, "[19]": {"details": "31 g ai/ha, 0 to 100 scale (0 no effect, 100 complete control)"}, "[20]": {"details": "125 g ai/ha, 0 to 100 scale, 0 is no effect, 100 is complete control, approximately 10 days"}, "[21]": {"details": "31 g ai/ha, 0 to 100 scale, 0 no effect, 100 complete control"}, "[22]": {"details": "125 g ai/ha, 0 to 100 scale (0 no effect, 100 complete control)"}, "[23]": {"details": "125 g ai/ha, 0 is no effect, 100 is complete control"}, "[24]": {"details": "500 g ai/ha, 0 is no effect, 100 is complete control"}, "[25]": {"details": "500 g ai/ha, 0 to 100 scale (0 no effect, 100 complete control)"}}, "data": [{"smiles": "FC(F)(F)CCCCc1c(Oc2ncc(Cl)cn2)cccc1C1CC1", "note": "[Compound 135]", "values": [{"measurement": "Plant response rating, Ducksalad", "setting": "[1]", "result": 85}, {"measurement": "Plant response rating, Barnyardgrass", "setting": "[2]", "result": 0}, {"measurement": "Plant response rating, Sedge, Umbrella", "setting": "[3]", "result": 85}, {"measurement": "Plant response rating, Rice", "setting": "rice (Oryza sativa)", "result": 20}, {"measurement": "Corn plant response rating", "setting": "corn (Zea mays); [19]", "result": 10}, {"measurement": "Corn plant response rating", "setting": "corn (Zea mays); [20]", "result": 20}, {"measurement": "Wheat plant response rating", "setting": "[4]; [19]", "result": 0}, {"measurement": "Wheat plant response rating", "setting": "[4]; [20]", "result": 0}, {"measurement": "Pigweed plant response rating", "setting": "[5]; [19]", "result": 40}, {"measurement": "Pigweed plant response rating", "setting": "[5]; [20]", "result": 90}, {"measurement": "Ragweed plant response rating", "setting": "[6]; [19]", "result": 0}, {"measurement": "Ragweed plant response rating", "setting": "[6]; [20]", "result": 10}, {"measurement": "Kochia plant response rating", "setting": "kochia (Kochia scoparia) [7]; [19]", "result": 10}, {"measurement": "Kochia plant response rating", "setting": "kochia (Kochia scoparia) [7]; [20]", "result": 60}, {"measurement": "Blackgrass plant response rating", "setting": "[8]; [19]", "result": 0}, {"measurement": "Blackgrass plant response rating", "setting": "[8]; [20]", "result": 20}, {"measurement": "Foxtail, Giant plant response rating", "setting": "[9]; [19]", "result": 10}, {"measurement": "Foxtail, Giant plant response rating", "setting": "[9]; [20]", "result": 20}, {"measurement": "Barnyardgrass plant response rating", "setting": "[10]; 31 g ai/ha", "result": 0}, {"measurement": "Barnyardgrass plant response rating", "setting": "[10]; 125 g ai/ha", "result": 10}, {"measurement": "Ryegrass, Italian plant response rating", "setting": "[11]; [19]", "result": 0}, {"measurement": "Ryegrass, Italian plant response rating", "setting": "[11]; [20]", "result": 10}, {"measurement": "Galium plant response rating", "setting": "[12]; [19]", "result": 50}, {"measurement": "Galium plant response rating", "setting": "[12]; [20]", "result": 80}, {"measurement": "Plant response rating, Pigweed", "setting": "[13]; [21]", "result": 0}, {"measurement": "Plant response rating, Pigweed", "setting": "[13]; [22]", "result": 20}, {"measurement": "Plant response rating, Ragweed", "setting": "[14]; [21]", "result": 0}, {"measurement": "Plant response rating, Ragweed", "setting": "[14]; [22]", "result": 0}, {"measurement": "Plant response rating, Kochia", "setting": "kochia (Kochia scoparia) [15]; [21]", "result": 0}, {"measurement": "Plant response rating, Kochia", "setting": "kochia (Kochia scoparia) [15]; [22]", "result": 0}, {"measurement": "Plant response rating, Foxtail, Giant", "setting": "[16]; [21]", "result": 0}, {"measurement": "Plant response rating, Foxtail, Giant", "setting": "[16]; [22]", "result": 50}, {"measurement": "Plant response rating, Barnyardgrass", "setting": "[17]; [21]", "result": 0}, {"measurement": "Plant response rating, Barnyardgrass", "setting": "[17]; [22]", "result": 40}, {"measurement": "Plant response rating, Ryegrass, Italian", "setting": "[18]; [21]", "result": 0}, {"measurement": "Plant response rating, Ryegrass, Italian", "setting": "[18]; [22]", "result": 10}]}, {"smiles": "CC(CN(C)C(=O)c1c(Br)cccc1Oc1ncc(Cl)cn1)C(F)(F)F", "note": "(stereo not drawn) [Compound 18]", "values": [{"measurement": "Plant response rating, Ducksalad", "setting": "[1]", "result": 0}, {"measurement": "Plant response rating, Barnyardgrass", "setting": "[2]", "result": 0}, {"measurement": "Plant response rating, Sedge, Umbrella", "setting": "[3]", "result": 0}, {"measurement": "Plant response rating, Rice", "setting": "rice (Oryza sativa)", "result": 0}, {"measurement": "Corn plant response rating (0 to 100 scale)", "setting": "corn (Zea mays); [23]", "result": 0}, {"measurement": "Corn plant response rating (0 to 100 scale)", "setting": "corn (Zea mays); [24]", "result": 0}, {"measurement": "Wheat plant response rating (0 to 100 scale)", "setting": "[4]; [23]", "result": 0}, {"measurement": "Wheat plant response rating (0 to 100 scale)", "setting": "[4]; [24]", "result": 0}, {"measurement": "Pigweed plant response rating (0 to 100 scale)", "setting": "[5]; [23]", "result": 10}, {"measurement": "Pigweed plant response rating (0 to 100 scale)", "setting": "[5]; [24]", "result": 20}, {"measurement": "Ragweed plant response rating (0 to 100 scale)", "setting": "[6]; [23]", "result": 0}, {"measurement": "Ragweed plant response rating (0 to 100 scale)", "setting": "[6]; [24]", "result": 0}, {"measurement": "Kochia plant response rating (0 to 100 scale)", "setting": "kochia (Kochia scoparia) [7]; [23]", "result": 0}, {"measurement": "Kochia plant response rating (0 to 100 scale)", "setting": "kochia (Kochia scoparia) [7]; [24]", "result": 10}, {"measurement": "Blackgrass plant response rating (0 to 100 scale)", "setting": "[8]; [23]", "result": 0}, {"measurement": "Blackgrass plant response rating (0 to 100 scale)", "setting": "[8]; [24]", "result": 0}, {"measurement": "Foxtail, Giant plant response rating (0 to 100 scale)", "setting": "[9]; [23]", "result": 0}, {"measurement": "Foxtail, Giant plant response rating (0 to 100 scale)", "setting": "[9]; [24]", "result": 0}, {"measurement": "Barnyardgrass plant response rating (0 to 100 scale)", "setting": "[10]; 125 g ai/ha", "result": 0}, {"measurement": "Barnyardgrass plant response rating (0 to 100 scale)", "setting": "[10]; 500 g ai/ha", "result": 0}, {"measurement": "Ryegrass, Italian plant response rating (0 to 100 scale)", "setting": "[11]; [23]", "result": 0}, {"measurement": "Ryegrass, Italian plant response rating (0 to 100 scale)", "setting": "[11]; [24]", "result": 0}, {"measurement": "Galium plant response rating (0 to 100 scale)", "setting": "[12]; [23]", "result": 0}, {"measurement": "Galium plant response rating (0 to 100 scale)", "setting": "[12]; [24]", "result": 0}, {"measurement": "Pigweed plant response rating", "setting": "[13]; [22]", "result": 10}, {"measurement": "Pigweed plant response rating", "setting": "[13]; [25]", "result": 40}, {"measurement": "Ragweed plant response rating", "setting": "[14]; [22]", "result": 0}, {"measurement": "Ragweed plant response rating", "setting": "[14]; [25]", "result": 0}, {"measurement": "Kochia plant response rating", "setting": "kochia (Kochia scoparia) [15]; [22]", "result": 0}, {"measurement": "Kochia plant response rating", "setting": "kochia (Kochia scoparia) [15]; [25]", "result": 10}, {"measurement": "Foxtail, Giant plant response rating", "setting": "[16]; [22]", "result": 0}, {"measurement": "Foxtail, Giant plant response rating", "setting": "[16]; [25]", "result": 0}, {"measurement": "Barnyardgrass plant response rating", "setting": "[17]; [22]", "result": 0}, {"measurement": "Barnyardgrass plant response rating", "setting": "[17]; [25]", "result": 0}, {"measurement": "Ryegrass, Italian plant response rating", "setting": "[18]; [22]", "result": 0}, {"measurement": "Ryegrass, Italian plant response rating", "setting": "[18]; [25]", "result": 0}]}]}
